# Results as given in patent US10815230B2, “Casein kinase 1 delta inhibitor” (ELECTROPHORETICS LIMITED, priority 2015, dated 2020).
# Experiments:
# [1] = target: HIPK3 (Homo sapiens, UniProt Q9H422); experiment: KINOMEscan binding assay; details: read-out: % Ctrl @ 10000 nM
# [2] = target: TLK2 (Homo sapiens, UniProt Q86UE8); experiment: KINOMEscan binding assay; details: read-out: % Ctrl @ 10000 nM
# [3] = target: T1, ULK3 (Homo sapiens, UniProt Q6PHR2); experiment: KINOMEscan binding assay; details: read-out: % Ctrl @ 10000 nM
# T1 construct: purchased DiscoveRx (KINOMEscan, LeadHunter Discovery services)
# T1 sequence (Q6PHR2 whole entry): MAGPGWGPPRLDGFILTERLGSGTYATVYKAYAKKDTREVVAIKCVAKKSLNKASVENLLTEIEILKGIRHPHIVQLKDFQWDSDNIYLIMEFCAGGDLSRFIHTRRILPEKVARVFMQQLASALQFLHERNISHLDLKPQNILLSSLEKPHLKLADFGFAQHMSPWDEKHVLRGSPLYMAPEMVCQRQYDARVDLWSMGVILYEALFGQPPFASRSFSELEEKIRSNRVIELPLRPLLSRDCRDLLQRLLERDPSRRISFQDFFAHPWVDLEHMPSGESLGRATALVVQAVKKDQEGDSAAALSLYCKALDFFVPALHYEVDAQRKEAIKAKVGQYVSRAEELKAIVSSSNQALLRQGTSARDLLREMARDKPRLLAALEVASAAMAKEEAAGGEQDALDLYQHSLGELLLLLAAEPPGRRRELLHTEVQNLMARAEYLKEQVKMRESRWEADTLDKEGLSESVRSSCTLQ
# [4] = target: GAK (Homo sapiens, UniProt O14976); experiment: KINOMEscan binding assay; details: read-out: % Ctrl @ 10000 nM
# Chain of GAK (O14976 whole entry): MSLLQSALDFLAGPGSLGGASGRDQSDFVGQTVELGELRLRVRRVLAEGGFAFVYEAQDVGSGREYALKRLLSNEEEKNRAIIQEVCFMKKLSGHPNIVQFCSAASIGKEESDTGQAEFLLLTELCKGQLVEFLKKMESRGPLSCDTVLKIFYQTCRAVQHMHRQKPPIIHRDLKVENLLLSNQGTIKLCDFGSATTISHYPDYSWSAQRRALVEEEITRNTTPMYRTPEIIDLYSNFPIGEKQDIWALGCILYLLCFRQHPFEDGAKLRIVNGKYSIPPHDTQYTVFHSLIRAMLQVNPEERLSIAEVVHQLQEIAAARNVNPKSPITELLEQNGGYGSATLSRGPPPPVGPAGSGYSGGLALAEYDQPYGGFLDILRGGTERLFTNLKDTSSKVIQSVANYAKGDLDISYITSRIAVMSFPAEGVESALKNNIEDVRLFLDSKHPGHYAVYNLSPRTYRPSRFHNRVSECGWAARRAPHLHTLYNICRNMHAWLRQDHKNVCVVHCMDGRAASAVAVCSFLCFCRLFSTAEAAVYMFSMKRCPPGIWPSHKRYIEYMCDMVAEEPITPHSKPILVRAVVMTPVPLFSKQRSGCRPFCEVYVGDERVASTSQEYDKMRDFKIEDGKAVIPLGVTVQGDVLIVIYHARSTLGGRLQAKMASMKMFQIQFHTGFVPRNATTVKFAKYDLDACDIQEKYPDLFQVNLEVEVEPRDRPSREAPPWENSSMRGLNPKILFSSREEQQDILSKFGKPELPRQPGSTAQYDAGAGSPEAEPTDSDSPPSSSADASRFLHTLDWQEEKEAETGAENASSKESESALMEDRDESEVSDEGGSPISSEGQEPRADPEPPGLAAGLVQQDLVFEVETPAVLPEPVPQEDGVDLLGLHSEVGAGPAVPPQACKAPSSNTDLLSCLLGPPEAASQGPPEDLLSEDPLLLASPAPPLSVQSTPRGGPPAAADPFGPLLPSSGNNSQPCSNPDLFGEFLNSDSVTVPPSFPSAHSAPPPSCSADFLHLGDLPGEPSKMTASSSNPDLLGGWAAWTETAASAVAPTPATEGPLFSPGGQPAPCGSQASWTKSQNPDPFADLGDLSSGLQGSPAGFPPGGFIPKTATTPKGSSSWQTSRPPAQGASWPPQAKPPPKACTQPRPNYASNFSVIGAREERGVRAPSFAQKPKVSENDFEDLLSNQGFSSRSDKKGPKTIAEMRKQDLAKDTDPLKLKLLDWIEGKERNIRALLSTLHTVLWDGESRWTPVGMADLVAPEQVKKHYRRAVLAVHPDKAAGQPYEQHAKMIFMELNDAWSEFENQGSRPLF
# [5] = target: T2, VRK2 (Homo sapiens, UniProt Q86Y07); experiment: KINOMEscan binding assay; details: read-out: % Ctrl @ 10000 nM
# T2 construct: purchased DiscoveRx (KINOMEscan, LeadHunter Discovery services)
# T2 sequence (Q86Y07 whole entry): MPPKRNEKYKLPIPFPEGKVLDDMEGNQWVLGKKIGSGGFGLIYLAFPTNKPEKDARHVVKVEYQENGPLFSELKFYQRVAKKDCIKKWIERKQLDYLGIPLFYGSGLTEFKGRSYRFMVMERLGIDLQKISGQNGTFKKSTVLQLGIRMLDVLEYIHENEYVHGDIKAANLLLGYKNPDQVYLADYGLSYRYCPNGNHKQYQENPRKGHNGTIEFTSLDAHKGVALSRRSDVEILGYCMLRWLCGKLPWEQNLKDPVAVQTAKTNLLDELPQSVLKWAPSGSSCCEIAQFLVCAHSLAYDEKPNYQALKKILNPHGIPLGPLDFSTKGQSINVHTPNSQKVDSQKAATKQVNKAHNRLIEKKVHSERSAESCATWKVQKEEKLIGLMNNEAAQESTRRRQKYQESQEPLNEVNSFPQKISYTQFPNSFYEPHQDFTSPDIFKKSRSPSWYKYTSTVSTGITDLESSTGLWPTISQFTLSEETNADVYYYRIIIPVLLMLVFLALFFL
# [6] = target: FER (Homo sapiens, UniProt P16591); experiment: KINOMEscan binding assay; details: read-out: % Ctrl @ 10000 nM
# [7] = target: PIK3CA (Homo sapiens, UniProt P42336); experiment: KINOMEscan binding assay; details: read-out: % Ctrl @ 10000 nM
# [8] = target: SGK3 (Homo sapiens, UniProt Q96BR1); experiment: KINOMEscan binding assay; details: read-out: % Ctrl @ 10000 nM
# [9] = target: JNK1 (Homo sapiens, UniProt P45983); experiment: KINOMEscan binding assay; details: read-out: % Ctrl @ 10000 nM
# [10] = target: MYO3B (Homo sapiens, UniProt Q8WXR4); experiment: KINOMEscan binding assay; details: read-out: % Ctrl @ 10000 nM
# Chain of MYO3B (Q8WXR4 whole entry): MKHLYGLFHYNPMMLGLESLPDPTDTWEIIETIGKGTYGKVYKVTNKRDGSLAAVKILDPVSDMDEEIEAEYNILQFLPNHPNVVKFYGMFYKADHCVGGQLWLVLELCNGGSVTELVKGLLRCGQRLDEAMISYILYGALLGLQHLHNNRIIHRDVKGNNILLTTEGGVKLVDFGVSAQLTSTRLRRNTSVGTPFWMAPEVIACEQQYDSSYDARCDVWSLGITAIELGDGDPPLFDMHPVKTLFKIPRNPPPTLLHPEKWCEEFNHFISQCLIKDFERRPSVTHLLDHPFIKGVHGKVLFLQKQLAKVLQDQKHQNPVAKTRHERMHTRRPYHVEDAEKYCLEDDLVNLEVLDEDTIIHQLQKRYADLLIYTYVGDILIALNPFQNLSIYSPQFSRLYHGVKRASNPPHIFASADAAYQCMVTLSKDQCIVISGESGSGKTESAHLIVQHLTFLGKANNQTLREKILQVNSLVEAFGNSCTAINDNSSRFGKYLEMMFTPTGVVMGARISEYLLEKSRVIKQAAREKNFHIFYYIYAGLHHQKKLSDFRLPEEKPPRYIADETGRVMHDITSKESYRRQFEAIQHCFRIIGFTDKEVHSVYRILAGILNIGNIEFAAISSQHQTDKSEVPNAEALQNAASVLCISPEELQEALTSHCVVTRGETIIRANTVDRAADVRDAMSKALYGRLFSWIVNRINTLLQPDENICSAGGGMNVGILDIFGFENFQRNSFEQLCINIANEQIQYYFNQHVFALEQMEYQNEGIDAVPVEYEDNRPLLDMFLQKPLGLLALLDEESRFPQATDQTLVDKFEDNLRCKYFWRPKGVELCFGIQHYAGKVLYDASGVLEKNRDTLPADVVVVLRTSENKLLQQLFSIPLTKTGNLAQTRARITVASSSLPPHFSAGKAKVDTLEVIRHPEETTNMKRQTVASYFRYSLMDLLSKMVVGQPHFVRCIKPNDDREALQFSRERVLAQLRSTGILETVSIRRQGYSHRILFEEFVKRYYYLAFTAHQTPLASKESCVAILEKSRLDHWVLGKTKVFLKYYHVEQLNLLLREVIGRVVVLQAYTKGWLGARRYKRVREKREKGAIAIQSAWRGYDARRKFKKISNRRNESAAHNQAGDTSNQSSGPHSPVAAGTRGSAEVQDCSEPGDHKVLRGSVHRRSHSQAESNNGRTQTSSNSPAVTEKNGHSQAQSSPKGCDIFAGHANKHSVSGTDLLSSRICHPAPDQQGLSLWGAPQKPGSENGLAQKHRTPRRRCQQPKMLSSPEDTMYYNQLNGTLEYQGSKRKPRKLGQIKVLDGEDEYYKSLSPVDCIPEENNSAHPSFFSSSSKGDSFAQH
# [11] = target: MUSK (Homo sapiens, UniProt O15146); experiment: KINOMEscan binding assay; details: read-out: % Ctrl @ 10000 nM
# [12] = target: SRPK3 (Homo sapiens, UniProt Q9UPE1); experiment: KINOMEscan binding assay; details: read-out: % Ctrl @ 10000 nM
# [13] = system: non-mutant kinases; experiment: KINOMEscan kinase screening panel, binding capacity and Selectivity Score; details: 10 μM, 395 non-mutant kinases
# Description: The assay was carried out according to the established KINOMEscan® technology (DiscoveRx® LeadHunter®, Discovery services, www.discoverx.com). […] Screening “hits” are identified by measuring the amount of kinase captured in test versus control samples by using a quantitative, qPCR method that detects an associated DNA label. For most assays, kinase-tagged T7 phage strains ware grown in parallel in 24-well blocks in an E. coli host derived from the BL21 strain. E. coli were grown to log-phase and infected with T7 phage from a frozen stock (multiplicity of infection=0.4) and incubated with shading at 32° C. until lysis (90-150 minutes). The lysates were centrifuged (6,000×g) and filtered (0.2 μm) to remove cell debris. The remaining kinases were produced in HEK293 cells and subsequently tagged with DMA for qPCR detection. Streptavidin-coated magnetic beads were treated with biotinylated small molecule ligands for 30 minutes at room temperature to generate affinity resins for kinase assays. The liganded beads were blocked with excess biotin and washed with blocking buffer (SeaBlock (Pierce), 1% BSA, 0.05 % Tween 20, 1 mM DTT) to remove unbound ligand and to reduce non-specific phage binding. […] All reactions were performed in polypropylene 384-well plates in a final volume of 0.04 ml. The assay plates were incubated at room temperature with shaking for 1 hour and the affinity beads were washed with wash buffer (1×PBS, 0.05% Tween 20). The beads were then re-suspended in elution buffer (1×PBS, 0.05 % Tween 20, 0.5 μM non-biotinylated affinity ligand) and incubated at room temperature with shaking for 30 minutes. The kinase concentration in the eluates was measured by qPCR.
# Results were reported as “% Ctrl”, where lower numbers indicate stronger hits. The calculation of the “% Ctrl” was as follow:
# In addition to the binding capacity, the Selectivity Score (or S-score) was calculated (Karaman, M. W. et al. A quantitative analysis of kinase inhibitor selectivity. Nat. Biotechnol. 26, 127-132 (2008). The S-score is a quantitative measure of compound selectivity. It is calculated by dividing the number of kinases that a compound binds to by the total number of distinct kinases tested, excluding mutant variants. S-score−Number of hits/Number of assays
# S(35)=(number of non-mutant kinases with % Ctrl<35)/(number of non-mutant kinases tested)
# S(10)=(number of non-mutant kinases with % Ctrl<10)/(number of non-mutant kinases tested)
# S(1)=(number of non-mutant kinases with % Ctrl<1)/(number of non-mutant kinases tested)
# and provides a quantitative method of describing compound selectivity to facilitate comparison of different compounds. The screening concentration was 10 μM.
# [14] = target: CAMK2D (Homo sapiens, UniProt Q13557); experiment: KINOMEscan binding assay; details: read-out: % Ctrl @ 10000 nM
# [15] = target: ABL1 (F317I) non-phosphorylated (Homo sapiens, UniProt P00519, F317I); experiment: KINOMEscan binding assay; details: read-out: % Ctrl @ 10000 nM
# Chain of ABL1 (F317I) non-phosphorylated (P00519 whole entry F317I): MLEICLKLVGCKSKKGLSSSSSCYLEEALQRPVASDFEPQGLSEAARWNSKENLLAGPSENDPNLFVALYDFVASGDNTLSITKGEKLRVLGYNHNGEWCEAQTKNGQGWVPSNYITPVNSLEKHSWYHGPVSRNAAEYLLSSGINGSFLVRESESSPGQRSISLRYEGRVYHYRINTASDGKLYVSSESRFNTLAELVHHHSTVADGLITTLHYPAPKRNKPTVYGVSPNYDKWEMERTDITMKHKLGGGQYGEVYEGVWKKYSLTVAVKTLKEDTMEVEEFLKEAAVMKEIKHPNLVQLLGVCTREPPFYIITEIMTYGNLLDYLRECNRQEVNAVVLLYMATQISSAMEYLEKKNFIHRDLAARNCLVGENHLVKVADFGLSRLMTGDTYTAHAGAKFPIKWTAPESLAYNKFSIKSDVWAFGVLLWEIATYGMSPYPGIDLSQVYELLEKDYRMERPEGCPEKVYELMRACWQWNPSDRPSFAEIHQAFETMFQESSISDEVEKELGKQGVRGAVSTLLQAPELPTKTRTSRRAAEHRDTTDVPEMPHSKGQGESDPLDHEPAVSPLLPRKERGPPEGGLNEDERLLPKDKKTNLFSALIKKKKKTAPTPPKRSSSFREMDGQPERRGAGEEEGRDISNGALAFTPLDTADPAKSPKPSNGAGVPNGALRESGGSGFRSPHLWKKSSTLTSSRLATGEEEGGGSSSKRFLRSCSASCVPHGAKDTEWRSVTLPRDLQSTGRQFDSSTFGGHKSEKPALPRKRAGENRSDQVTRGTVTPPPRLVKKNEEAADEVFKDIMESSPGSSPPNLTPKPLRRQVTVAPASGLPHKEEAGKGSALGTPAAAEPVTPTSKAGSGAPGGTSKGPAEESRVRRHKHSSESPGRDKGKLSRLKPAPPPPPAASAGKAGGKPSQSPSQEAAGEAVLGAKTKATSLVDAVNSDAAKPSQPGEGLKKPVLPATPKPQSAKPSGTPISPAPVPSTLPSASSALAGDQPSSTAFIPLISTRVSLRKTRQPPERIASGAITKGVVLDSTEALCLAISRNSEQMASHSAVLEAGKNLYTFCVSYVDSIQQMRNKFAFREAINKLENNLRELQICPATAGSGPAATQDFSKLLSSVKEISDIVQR
# [16] = target: ERK8 (Homo sapiens, UniProt Q8TD08); experiment: KINOMEscan binding assay; details: read-out: % Ctrl @ 10000 nM
# [17] = target: CHEK1 (Homo sapiens, UniProt O14757); experiment: KINOMEscan binding assay; details: read-out: % Ctrl @ 10000 nM
# [18] = target: PHKG2 (Homo sapiens, UniProt P15735); experiment: KINOMEscan binding assay; details: read-out: % Ctrl @ 10000 nM
# [19] = target: DYRK2 (Homo sapiens, UniProt Q92630); experiment: KINOMEscan binding assay; details: read-out: % Ctrl @ 10000 nM
# [20] = system: FLT3 (ITD); experiment: KINOMEscan binding assay
# [21] = target: FGR (Homo sapiens, UniProt P09769); experiment: KINOMEscan binding assay; details: read-out: % Ctrl @ 10000 nM
SMILES,remaining binding at 10 µM [1],remaining binding at 10 µM [2],remaining binding at 10 µM [3],remaining binding at 10 µM [4],remaining binding at 10 µM [5],remaining binding at 10 µM [6],remaining binding at 10 µM [7],remaining binding at 10 µM [8],remaining binding at 10 µM [9],remaining binding at 10 µM [10],remaining binding at 10 µM [11],remaining binding at 10 µM [12],remaining binding at 10 µM [14],remaining binding at 10 µM [15],remaining binding at 10 µM [16],remaining binding at 10 µM [17],remaining binding at 10 µM [18],remaining binding at 10 µM [19],remaining binding at 10 µM [21],also measured
"Nc1ncc(-c2nc3ccccc3o2)c(-c2ccncc2)n1 [Comparative Compound 324, 5-(1,3-benzoxazol-2-yl)-4-(pyridine-4-yl)pyrimidin-2-amine]",91%,100%,100%,87%,86%,100%,100%,94%,52%,100%,100%,99%,99%,90%,99%,100%,100%,82%,94%,Number of Hits S (1) ([13]; % Ctrl<1): 0; S-score S (1) ([13]; % Ctrl<1): 0; Number of Hits S (10) ([13]; % Ctrl<10): 4; S-score S (10) ([13]; % Ctrl<10): 0.01; Number of Hits S (35) ([13]; % Ctrl<35): 8; S-score S (35) ([13]; % Ctrl<35): 0.02; % Ctrl @ 10000 nM [20]: 85 % Ctrl
"CNc1c(C(N)=O)c2ccccn2c1C(=O)c1ccc(F)cc1 [Compound A, 2-methyl-amino-3-[(4-fluorophenyl)carbonyl]indolizine-1-carboxamide]",79%,94%,100%,10%,35%,98%,89%,98%,45%,100%,96%,92%,78%,85%,98%,85%,91%,83%,66%,–
